Experimental data reported in patent US7704502B2, “Combinations of antibodies selective for DR5 and other therapeutic agents” (The UAB Research Foundation, priority 2000, dated 2010).
Residues, ends and D or L forms follow the SMILES beside them. *: point of attachment. Cbz = O=C(OCc1ccccc1)*; CH2F = FC*

Tests used:
[1] = test system: 2LMP human breast cancer xenografts; experiment: TRA-8 therapy alone or with chemotherapy or radiation, breast cancer xenografts; type: in vivo, athymic nude mice
Description: Athymic nude mice were injected s.c. with 3×10^7 2LMP cells. […] The growth of tumors was monitored over time. […] Tumor size and regression rates were determined.
Data from 6 independent experiments were analyzed by individual experiment. Treatment combinations were compared with respect to in vivo anti-tumor efficacy, i.e., inhibition of tumor growth, which was measured as three endpoints; extension of tumor doubling times, percentage of tumor regressions, and growth rates over time. The actual number of days at which the tumor doubled in surface area (product of two diameters) relative to baseline on day 7 after tumor cell injection was used in the doubling time analysis. The nonparametric Kruskal-Wallis test was used for median tumor doubling time comparisons between treatments. Fisher's exact test was used to compare the proportions of tumor regressions and relapse-free regressions across treatment groups. To determine if any combination therapy produced significant synergistic inhibition of tumor growth, i.e., more than additive, the growth curves from the serial area measurements were compared using a linear mixed model approach over the first 3 weeks after start of therapy (Lindsey, J. K. Models for Repeated Measurements, pp. 100-142, Oxford, 1993). To test for synergistic effects of the combination therapies, an interaction term was included in the model. If the interaction term was significant and the effect was inhibition of growth at a rate greater than additive then the interaction was considered synergistic.
A total of 166 animals, 10 treatment groups, and 6 independent experiments were included in the aggregate analysis. Treatment combinations were compared with respect to in vivo anti-tumor efficacy. The median tumor doubling times were analyzed using the Kruskal-Wallis test and Fisher's exact test was used to compare the proportions of tumor regressions and relapse-free regressions across treatment groups.

[2] = test system: 2LMP xenografts; experiment: Analysis of apoptosis in xenografts (TUNEL); type: in vivo, athymic nude mice; conditions: day 14
Description: One group of mice was untreated. The xenografts were dissected for the study of apoptosis on day 14 after tumor cell injection. The reason for the substantial reduction in treatment intensity compared to our standard treatment protocol was to allow adequate tumor tissue for analysis on day 14. Tunel assay for apoptosis in tumor xenografts was performed as follows. Five-micron paraffin sections of tissue were mounted on Superfrost/Plus slides and heated at 58° C. for 1 h. Tissue sections were deparaffinized in three changes of xylene and rehydrated with one change of absolute ethanol, 95% ethanol, and 70% ethanol, each in 5-min increments. Then, the sections were placed in Tris-buffered saline (0.5M Tris base, 0.15 M NaCl, 0.0002% Triton X-100™, pH 7.6). Apoptotic nuclei were detected using an Apop Tag Peroxidase kit (Intergen, Purchase, N.Y.). Proteinase K (20 μg/ml in distilled deionized H2O) was added to the tissue specimens and incubated at room temperature for 15 min. Endogenous peroxidases were quenched with an aqueous solution of 3% hydrogen peroxide for 5 min. Sections were treated with an equilibration buffer for 30 min and then incubated with the TdT/enzyme (diluted in labeling reaction mix) for 1 h at 37° C. using parafilm covers. During this incubation, the TdT enzyme binds the 3′-OH ends of DNA fragments and catalyzes the addition of digoxigenin-labeled and unlabeled deoxynucleotides. Negative controls were incubated with distilled H2O (diluted in labeling reaction mix) instead of the TdT enzyme. A stop buffer was added for 10 min at room temperature to terminate the labeling reaction. An anti-digoxigenin conjugate was added to each slide for 30 min. The chromagen 3,3′ DAB was used to visualize the labeled 3′ OH end of DNA fragments. The slides were then rinsed in deionized water and lightly counterstained with hematoxylin, dehydrated using graded alcohols and xylene and coverlsipped using Permount. Approximately 10 random fields were evaluated for percentage of Tunel stained and percentage of intensely stained apoptotic bodies throughout the tissue.

[3] = test system: Jurkat cells; experiment: Jurkat cell viability after overnight culture (ATPLite, MTT, PI exclusion); type: cell-based, human; conditions: 50 ng/ml TRA-8 overnight plus caspase inhibitor
Description: (§1) Cell viability is determined using (1) the ATPLite® kit according to the manufacturer's instructions (Packard Instruments, Meriden, Conn.); (2) the MTT Cell proliferation/viability kit (Sigma); or (3) PI staining of dead cells and analyzed by flow cytometry. At end of culture, cells are stained with 10 μg/ml PI and PI negative cells are gated as viable cells. For analysis of condensed nuclei of hepatocytes, cells are stained with 10 ng/ml Hoechst 33352 (Molecular Probes) and analyzed by flow cytometry.

[4] = test system: MMP-1, 3, and 13; experiment: Production of MMPs by RA synovial cells (ELISA); type: cell-based, human; conditions: overnight; 50 ng/ml interleukin 1b, 10 ng/ml TNF-a, 50 ng/ml TRAIL or TRA-8; vs medium control
Description: Thus, it is possible that TRAIL, like TNF-α, may serve as a pro-inflammatory cytokine. […] The levels of the MMP-1 and MMP-3 in the culture supernatants are determined by the ELISA kits.

[5] = test system: NF-κb; experiment: Gel-shift assay of NF-κb activation in RA synovial cells; type: cell-based, human; conditions: 50 ng/ml TRAIL, Fas ligand or TRA-8; 20 ng/ml TNF-a
Description: There is considerable evidence to support the concept that there are close links between the signaling of apoptosis and the signaling of proliferation (45). It has been established that DR5 is able to activate a NF-kb pathway in addition to apoptosis signaling transduction, and that NF-κb activation may be able to transduce an anti-apoptosis signal. Therefore a gel-shift assay is carried out. […] The nuclear extracts are prepared and incubated with the […] [^32P]-labeled oligo-DNA probe. The results are analyzed using the cyclone phospha-imager (TopCount NXT, Packard Instrument Company, CT).

[6] = molecular target: T1, DR5 (Homo sapiens, UniProt O14763); experiment: ELISA binding of TRAIL and TRA-8 to the receptors
T1 construct: fusing cDNA from residues 1-180 of the extracellular portion of DR5; made in house; host or cells: QBI-293A cells, recombinant adenovirus (pAdΔDR5-Fc)
Source text: (§2) The reactions are developed by TMB substrate buffer and measured by the Benchmark Microplate Reader (BioRad). The Kd values are estimated by the one-site binding model of non-linear regression using GraphPad Prism® software (GraphPad Software, San Diego, Calif.).

[7] = Induction of hepatitis in vivo by tetracycline-inducible adenoviral vectors; parameters: species or system B6 mice; conditions: 10 μg in Ad/TRAIL inoculated mice, AST at 24 hours
Description: 8-10 week-old female B6 mice are intravenously injected with 10^9 pfu of Ad/hTRAIL with the equal number of Ad/Tet-on. Mice are fed with different concentrations of tetracycline in their drinking water immediately after inoculation of adenoviral vectors. Liver injury is determined by serum levels of AST using an AST diagnostic kit (Sigma). Expression of TRAIL is determined by Northern blot analysis.

[8] = test system: Jurkat and CEM-6; experiment: Apoptosis susceptibility (ATPLite, overnight); type: cell-based, human; conditions: TRAIL plus crosslinker
Description: as §1

[9] = test system: glioma cell lines Hs683 and U251-MG; experiment: Apoptosis susceptibility (ATPLite, overnight); type: cell-based, human
Description: as §1

[10] = test system: B lymphoma cell lines SKW6.4, EB-3, and Raji; experiment: Apoptosis susceptibility (ATPLite, overnight); type: cell-based, human; conditions: TRAIL plus crosslinker
Description: as §1

[11] = test system: H-9 cells; experiment: Apoptosis susceptibility (ATPLite, overnight); type: cell-based, human; conditions: TRAIL plus crosslinker
Description: as §1

[12] = test system: U87, U937 and Molt-4; experiment: Apoptosis susceptibility (ATPLite, overnight); type: cell-based, human
Description: as §1

[13] = test system: primary B cells; experiment: Apoptosis susceptibility (ATPLite, overnight); type: cell-based, human; conditions: TRAIL plus crosslinker
Description: as §1

[14] = test system: Primary peripheral blood T cells; experiment: Apoptosis susceptibility (ATPLite, overnight); type: cell-based, human; conditions: TRAIL plus crosslinker
Description: as §1

[15] = test system: Molt-4 and U937 cells; experiment: Apoptosis susceptibility (ATPLite, overnight); type: cell-based, human; conditions: TRAIL plus crosslinker
Description: as §1

[16] = test system: Daudi; experiment: Apoptosis susceptibility (ATPLite, overnight); type: cell-based, human; conditions: TRAIL plus crosslinker
Description: as §1

[17] = test system: OA72M cells; experiment: Apoptosis of primary synovial cells; type: cell-based, human
Source text: (§3) Cell viability is the percentage of the cpm of treated cells versus the cpm of untreated cells.
(§4) The expression of DR5 on a panel of eight primary cultured synovial cells from patients with RA is compared with that on eight primary cultured synovial cells from patients with osteoarthritis (hereinafter referred to as “OA”). The eight human primary RA synovial cell cultures RA-1014, RA-1016, RA-1021, RA-512, RA-707, RA-811, RA-716, and RA-929 are kindly provided by Dr. M. Ohtsuki (Sankyo Co. Ltd., Tokyo, Japan) and cultured in DMEM supplemented with 10% FCS, penicillin, streptomycin, and glutamine. The […] OA synovial cell primary cell cultures are isolated from the synovial tissues of OA patients by a standard collagenase method and cultured under the same conditions. The passage number of all primary cells is under 10. The expression of DR5 is determined by FACs analysis as described in Example 5.

[18] = test system: RA-1014, RA-811, RA-716, and RA929; experiment: Apoptosis of primary synovial cells; type: cell-based, human; conditions: high concentrations (>50 ng/ml)
Source text: as §3, §4

[19] = test system: normal human hepatocytes; experiment: Hepatocellular toxicity, cell viability (ATPLite); type: cell-based
Source text: For 24-hour cell viability assays, fresh normal human hepatocytes in 96-well plates were purchased from In Vitro Technology (Baltimore, Md.). […] For 6-hour viability assays, normal hepatocytes or hepatocellular cancer cells are isolated from fresh surgical specimens collected from UAB Tissue Procurement Center. All reagents for isolation of human hepatocytes including hepatocytes perfusion buffer, digest medium, washing medium, and attachment medium were purchased from Gibco. The tissue slides are digested in the Hepatocyte Digest Medium at 37° C. with shaking (50 rpm) for one hour. The isolated hepatocytes are harvested by low speed centrifugation (50 g, 3 min), and washed with the Hepatocyte Washing Medium six times. Single cell suspension of hepatocytes are cultured in the Attachment Medium containing 10% FCS in 96-well Matrigel plates (BD) for six hours. Non-attached hepatocytes are removed by twice washing with pre-warmed attachment medium.

[20] = molecular target: T2, DR4 (Homo sapiens, UniProt O00220); experiment: ELISA binding of TRAIL and TRA-8 to the receptors
T2 construct: a fusion protein comprising the extracellular domain of human DR5 or DR4 and the Fc region of human IgG1; human IgG1 Fc (Ig)
Description: as §2, with “ELISA plates are coated with 2 μg/ml of DR4-Ig or DR5-Ig fusion protein overnight. […] The reactions” for “The reactions”

[21] = test system: HepG2 cells; experiment: Cell viability (ATPLite); type: cell-based, human; conditions: 8-hour culture period
[22] = test system: non-transformed fibroblast cells; experiment: Apoptosis of fibroblast cells; type: cell-based
[23] = test system: SV40 transformed synovial cells; experiment: Apoptosis of synovial cells; type: cell-based, human; conditions: data not shown
[24] = aggregate of 6 experiments, number of animals (%)
[25] = aggregate of 6 experiments, relative to day 7

T2 sequence (O00220 24-239 limits assumed): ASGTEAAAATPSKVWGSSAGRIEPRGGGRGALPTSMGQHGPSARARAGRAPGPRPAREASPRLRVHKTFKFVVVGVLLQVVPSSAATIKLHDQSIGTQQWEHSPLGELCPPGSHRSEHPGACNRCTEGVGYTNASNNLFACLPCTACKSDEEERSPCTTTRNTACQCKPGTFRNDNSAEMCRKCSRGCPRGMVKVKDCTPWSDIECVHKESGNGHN
T1 sequence (O14763 56-180): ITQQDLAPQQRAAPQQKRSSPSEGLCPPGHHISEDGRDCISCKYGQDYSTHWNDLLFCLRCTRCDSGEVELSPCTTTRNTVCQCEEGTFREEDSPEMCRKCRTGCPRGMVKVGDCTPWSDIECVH

## COc1cccc2c1C(=O)c1c(O)c3c(c(O)c1C2=O)C[C@@](O)(C(=O)CO)C[C@@H]3O[C@H]1C[C@H](N)[C@H](O)[C@H](C)O1 [Adriamycin, adriamycin (doxorubicin)]
[1]; [24]
  Complete Regressions No relapse (%): 0
  Complete Regressions Total (%): 0
[1]; [25]
  Tumor Doubling Time (mean): 17 days
  Tumor Doubling Time (median): 18 days
[1]; individual experiments, TRA-8 200 μg i.p. x6, adriamycin 6 mg/kg, paclitaxel 20 mg/kg, 3 Gy 60Co, Kruskal-Wallis on doubling times
  inhibition of tumor growth compared to untreated controls: did not differ from controls
[2]; 100 μg TRA-8 days 7, 10, adriamycin 3 mg/kg or paclitaxel 10 mg/kg days 8, 11, untreated 4%
  TUNEL stained cells: 8%
[2]; same regimen, untreated 1%
  intensely stained cells: 6%

## CC(NC(=O)C(NC(=O)OCc1ccccc1)C(C)C)C(=O)NC(CC(=O)O)C(=O)CF (stereo not drawn) [Z-VAD] (Cbz-Val-Ala-Asp-CH2F; configuration not given here)
[3]
  inhibition of TRA-8-induced cell death: completely inhibited

## IL-1b: proinflammatory cytokine
[4]
  production/release of MMPs: increased

## TNF-α
[4]
  production/release of MMPs: increased
[5]
  NF-κb activation: activated in a time-dependent fashion

## TRAIL: soluble recombinant human TRAIL (aa 95 to 281) FLAG-tagged fusion protein, Alexis; used with anti-FLAG crosslinker
[6]
  binding to immobilized DR5: bound comparably
[7]
  liver injury after intravenous injection: did not exhibit increased liver injury
[8]
  susceptibility to apoptosis: highly susceptible
[9]
  susceptibility to apoptosis: resistant
[10]
  susceptibility to apoptosis: very susceptible
[11]
  susceptibility to apoptosis: resistant
[12]
  susceptibility to apoptosis: exhibited sensitivity
[13]
  susceptibility to apoptosis: did not undergo apoptosis
[14]
  susceptibility to apoptosis: resistant
[15]
  susceptibility to apoptosis: partially susceptible
[16]
  susceptibility to apoptosis: much less susceptible
[4]
  production/release of MMPs: not associated with increased release
[17]
  susceptibility to apoptosis: completely resistant
[18]
  cell death: ~100%
[19]; 1 μg/ml TRAIL or TRA-8, 1 μg/ml cycloheximide, four-hour culture
  hepatocytes killed in the presence of cycloheximide: greater than 70%
[19]; 1 μg/ml, end of 24-hour culture, TRAIL plus crosslinker
  hepatocytes killed: more than 80%
[19]; 6-hour culture, 500 ng/ml
  hepatocytes killed: Over 20%
[20]
  binding to DR4: bound to DR4
[21]
  cells killed: ~100%
[22]
  susceptibility to apoptosis: resistant
[23]
  susceptibility to apoptosis: susceptible
[5]
  NF-κb activation: activated in a time-dependent fashion

B1: Fas ligand: soluble Fas ligand used with enhancer/crosslinker (protein, UniProt P48023 103-281, looked up)
extracellular domain: QLFHLQKELAELRESTSQMHTASSLEKQIGHPSPPPEKKELRKVAHLTGKSNSRSMPLEWEDTYGIVLLSGVKYKKGGLVINETGLYFVYSKVYFRGQSCNNLPLSHKVYMRNSKYPQDLVMMEGKMMSYCTTGQMWARSSYLGAVFNLTSADHLYVNVSELSLVNFEESQTFFGLYKL
modifications: extracellular domain
notes: soluble Fas ligand used with enhancer/crosslinker
[19]; Fas-mediated apoptosis, 6 hours
  difference in susceptibility among normal hepatocytes, hepatocellular carcinoma cells, and HepG2 cells: no significant difference
[5]
  NF-κb activation: unable to induce
